Experimental data: article PMC5877509, “Cys Site-Directed Mutagenesis of the Human SLC1A5 (ASCT2) Transporter: Structure/Function Relationships and Crucial Role of Cys467 for Redox Sensing and Glutamine Transport” (International Journal of Molecular Sciences, 2018)
Residue numbers refer to the chain shown, from its start. One block for each compound: values may come before it.

Tests used:
Type in all cases: biochemical
[1] = molecular target: T1, hASCT2 (Homo sapiens, UniProt Q15758, C467A); assay: [3H]Gln transport kinetics (external Km) in proteoliposomes
T1 construct: gene SLC1A5; recombinant hASCT2-His6, purified from P. pastoris, in proteoliposomes
T1 sequence (Q15758 1-541 C467A): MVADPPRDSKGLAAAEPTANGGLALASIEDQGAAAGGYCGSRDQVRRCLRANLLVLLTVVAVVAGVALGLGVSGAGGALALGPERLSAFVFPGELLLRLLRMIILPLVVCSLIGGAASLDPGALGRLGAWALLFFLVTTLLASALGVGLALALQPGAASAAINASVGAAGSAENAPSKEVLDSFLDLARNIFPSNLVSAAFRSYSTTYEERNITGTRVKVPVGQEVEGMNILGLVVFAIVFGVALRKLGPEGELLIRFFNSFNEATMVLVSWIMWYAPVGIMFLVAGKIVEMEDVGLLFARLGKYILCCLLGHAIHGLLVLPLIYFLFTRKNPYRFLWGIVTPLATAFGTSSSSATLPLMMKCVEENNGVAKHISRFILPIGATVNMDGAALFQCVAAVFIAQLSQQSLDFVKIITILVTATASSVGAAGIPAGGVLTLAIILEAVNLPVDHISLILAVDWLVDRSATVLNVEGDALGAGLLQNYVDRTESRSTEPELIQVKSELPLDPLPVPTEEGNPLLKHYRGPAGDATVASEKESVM

[2] = molecular target: T2, hASCT2 (Homo sapiens, UniProt Q15758); assay: as above
T2 construct: gene SLC1A5; recombinant hASCT2-His6, purified from P. pastoris, in proteoliposomes
T2 sequence (Q15758 1-541): T1 sequence (Q15758 1-541 C467A) with A467C

[3] = molecular target: T2, hASCT2; assay: [3H]Gln transport inhibition in proteoliposomes at […]; settings: read-out: % inhibition at 1 mM
[4] = molecular target: T2, hASCT2; assay: [3H]Gln transport inhibition in proteoliposomes, dose-response
[5] = molecular target: T2, hASCT2; assay: [3H]Gln transport inhibition in proteoliposomes at […]
[6] = molecular target: T1, hASCT2; assay: [3H]Gln transport inhibition in proteoliposomes, dose-response

- Km [1]: 202 ± 33 µM
- Km [2]: 35 ± 10 µM
Structure (SMILES): NC(=O)CC[C@H](N)C(=O)O [Gln]

Structure (SMILES): CCN1C(=O)C=CC1=O [NEM]
- inhibition at 1000 µM [3]: ~50%

Structure (SMILES): CS(=O)(=O)SCCS(=O)(=O)O [MTSES, Sodium (2-sulfonatoethyl)methane thiosulfonate]
- IC50 [4]: 129 ± 21 µM

Structure (SMILES): N[C@@H](CS)C(=O)O [Cys]
- [3H]Gln transport inhibition in proteoliposomes at 1 mM [5]: While Cys strongly inhibited the transport; in this case, inhibition occurred by a mechanism not involving S-S/SH inter-conversion
- IC50 [6]: 16.6 ± 1.62 µM
